{
  "source": "paper PMC4876051",
  "about": "(Clinical pharmacokinetics, 2016)",
  "key": {"[1]": {"details": "cited from earlier work"}, "[2]": {"target": "plasma membrane monoamine transporter (PMAT, SLC29A4) (Homo sapiens, UniProt Q7RTT9)", "sequence (Q7RTT9 whole entry)": "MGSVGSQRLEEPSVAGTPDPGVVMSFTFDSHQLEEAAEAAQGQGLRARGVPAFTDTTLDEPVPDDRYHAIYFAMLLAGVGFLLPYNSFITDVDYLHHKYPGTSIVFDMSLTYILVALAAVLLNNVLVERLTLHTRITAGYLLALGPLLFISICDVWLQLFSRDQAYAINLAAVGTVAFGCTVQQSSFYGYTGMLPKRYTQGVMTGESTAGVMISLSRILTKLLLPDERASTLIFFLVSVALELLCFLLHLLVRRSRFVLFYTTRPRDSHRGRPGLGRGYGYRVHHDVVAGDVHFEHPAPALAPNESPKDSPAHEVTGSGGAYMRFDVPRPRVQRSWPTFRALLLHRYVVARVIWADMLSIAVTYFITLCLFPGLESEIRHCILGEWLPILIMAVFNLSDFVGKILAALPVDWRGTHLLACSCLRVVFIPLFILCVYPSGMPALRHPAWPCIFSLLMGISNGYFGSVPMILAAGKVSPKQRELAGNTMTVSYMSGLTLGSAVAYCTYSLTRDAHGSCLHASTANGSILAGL", "details": "Supplemental Fig. 7"}, "MATE1 [3]": {"target": "T1, MATE1 (Homo sapiens, UniProt Q96FL8)", "T1 sequence (Q96FL8 whole entry)": "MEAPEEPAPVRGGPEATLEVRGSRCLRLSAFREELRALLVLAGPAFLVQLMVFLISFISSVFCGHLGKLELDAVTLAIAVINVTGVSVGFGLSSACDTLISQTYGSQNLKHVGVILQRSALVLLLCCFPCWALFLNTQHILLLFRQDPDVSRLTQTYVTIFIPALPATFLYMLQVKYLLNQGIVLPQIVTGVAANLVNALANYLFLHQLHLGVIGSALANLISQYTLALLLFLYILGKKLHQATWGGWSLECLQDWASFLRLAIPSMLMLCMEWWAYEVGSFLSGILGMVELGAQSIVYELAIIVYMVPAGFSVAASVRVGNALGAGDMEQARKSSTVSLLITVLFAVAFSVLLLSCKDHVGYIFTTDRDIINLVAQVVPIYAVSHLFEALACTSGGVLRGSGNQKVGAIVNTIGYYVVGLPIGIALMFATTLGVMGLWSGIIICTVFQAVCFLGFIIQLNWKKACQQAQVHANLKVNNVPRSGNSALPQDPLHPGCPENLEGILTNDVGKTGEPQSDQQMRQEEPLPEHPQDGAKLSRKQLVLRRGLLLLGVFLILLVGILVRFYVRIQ", "experiment": "cell-based"}, "MATE1 [4]": {"target": "T1, MATE1", "details": "MATE1 vs OCT2"}, "[5]": {"test_system": "creatinine (an endogenous substrate of MATE1)", "details": "12h after famotidine (200 mg) alone vs pre-famotidine"}, "OCT1 [6]": {"target": "T2, OCT1 (Homo sapiens, UniProt O15245)", "T2 sequence (O15245 whole entry)": "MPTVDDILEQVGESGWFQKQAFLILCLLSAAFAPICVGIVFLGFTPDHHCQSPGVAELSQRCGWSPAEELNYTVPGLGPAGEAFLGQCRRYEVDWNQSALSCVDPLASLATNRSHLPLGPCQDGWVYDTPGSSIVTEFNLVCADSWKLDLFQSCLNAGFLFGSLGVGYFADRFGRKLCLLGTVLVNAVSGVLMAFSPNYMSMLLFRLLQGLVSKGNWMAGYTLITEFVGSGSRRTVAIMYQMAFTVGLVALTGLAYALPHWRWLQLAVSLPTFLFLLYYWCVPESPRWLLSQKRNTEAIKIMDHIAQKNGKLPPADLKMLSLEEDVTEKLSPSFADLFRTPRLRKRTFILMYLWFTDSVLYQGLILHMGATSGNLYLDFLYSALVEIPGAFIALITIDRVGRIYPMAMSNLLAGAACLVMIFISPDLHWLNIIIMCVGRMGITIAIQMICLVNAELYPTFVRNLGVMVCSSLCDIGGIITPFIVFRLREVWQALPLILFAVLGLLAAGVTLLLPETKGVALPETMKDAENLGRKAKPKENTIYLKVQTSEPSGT", "experiment": "cell-based"}, "clinical [7]": {"experiment": "clinical", "details": "human, plasma and urine, oral, 200 mg"}, "MATE2 [8]": {"target": "T3, MATE2 (Homo sapiens, UniProt Q86VL8)", "T3 sequence (Q86VL8 whole entry)": "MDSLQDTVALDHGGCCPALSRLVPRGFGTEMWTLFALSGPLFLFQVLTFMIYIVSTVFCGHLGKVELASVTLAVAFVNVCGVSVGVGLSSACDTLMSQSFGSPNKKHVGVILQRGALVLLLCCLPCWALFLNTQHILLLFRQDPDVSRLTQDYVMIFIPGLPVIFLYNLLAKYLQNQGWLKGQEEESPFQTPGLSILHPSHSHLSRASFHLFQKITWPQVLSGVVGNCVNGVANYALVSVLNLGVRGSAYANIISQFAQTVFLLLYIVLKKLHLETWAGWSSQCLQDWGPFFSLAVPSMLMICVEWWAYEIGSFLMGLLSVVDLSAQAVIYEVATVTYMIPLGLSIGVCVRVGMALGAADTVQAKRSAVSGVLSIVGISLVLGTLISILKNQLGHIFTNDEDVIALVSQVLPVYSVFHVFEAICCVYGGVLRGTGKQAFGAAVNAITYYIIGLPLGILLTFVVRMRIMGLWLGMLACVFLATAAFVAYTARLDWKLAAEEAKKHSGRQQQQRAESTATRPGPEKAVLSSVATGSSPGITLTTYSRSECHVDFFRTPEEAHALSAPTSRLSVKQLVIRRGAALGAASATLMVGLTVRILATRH", "details": "overexpressing cell line; Supplemental Fig. 4"}, "MATE2 [9]": {"target": "T3, MATE2", "experiment": "cell-based"}, "[10]": {"details": "for Maximal concentration of unbound famotidine in plasma ([I], Cmax,u): healthy volunteers n=12, oral famotidine 160 to 200 mg doses"}, "OCT2 [11]": {"target": "T4, OCT2 (Homo sapiens, UniProt O15244)", "T4 sequence (O15244 whole entry)": "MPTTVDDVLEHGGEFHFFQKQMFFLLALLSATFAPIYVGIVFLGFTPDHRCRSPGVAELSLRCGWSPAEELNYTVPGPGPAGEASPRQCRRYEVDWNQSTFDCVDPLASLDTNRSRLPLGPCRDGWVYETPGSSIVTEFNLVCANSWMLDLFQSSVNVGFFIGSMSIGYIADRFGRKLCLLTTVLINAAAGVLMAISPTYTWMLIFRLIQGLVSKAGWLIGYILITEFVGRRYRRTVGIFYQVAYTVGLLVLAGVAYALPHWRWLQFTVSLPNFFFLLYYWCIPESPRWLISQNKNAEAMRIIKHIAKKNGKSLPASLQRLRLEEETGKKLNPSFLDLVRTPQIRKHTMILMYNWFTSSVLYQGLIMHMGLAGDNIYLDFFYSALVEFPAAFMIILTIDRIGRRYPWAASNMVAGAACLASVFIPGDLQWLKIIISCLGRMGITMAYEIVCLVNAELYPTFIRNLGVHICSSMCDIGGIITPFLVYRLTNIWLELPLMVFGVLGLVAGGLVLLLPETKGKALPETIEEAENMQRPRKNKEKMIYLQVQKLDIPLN", "details": "overexpressing cell line; Supplemental Fig. 4"}, "[12]": {"experiment": "Tolerability in the clinical study", "details": "twelve healthy volunteers; famotidine Cmax,u about 1.0 μM"}, "plasma glucose": {"test_system": "plasma glucose", "experiment": "Oral glucose tolerance test", "design": "AUCglu,0.5, GMR (90%CI), metformin vs baseline / AUCglu,3, GMR (90%CI), metformin vs baseline: unit not given beside the values"}, "[13]": {"details": "cited from earlier work", "remark": "listed apart in the source"}, "OCT2 [14]": {"target": "T4, OCT2", "experiment": "cell-based"}, "MATE1 [15]": {"target": "T1, MATE1", "details": "overexpressing cell line; Supplemental Fig. 4"}, "OCT1 [16]": {"target": "T2, OCT1", "details": "overexpressing cell line; Supplemental Fig. 4"}, "creatinine plasma levels": {"test_system": "creatinine plasma levels", "details": "with famotidine"}, "clinical [17]": {"experiment": "clinical", "details": "human"}, "[18]": {"details": "cited from earlier work", "remark": "listed apart in the source"}, "[19]": {"details": "population PK model, twelve healthy volunteers"}, "[20]": {"details": "glucose AUC 0 to 0.5h after 75 g glucose, n=12"}, "[21]": {"details": "glucose AUC 0 to 3h after 75 g glucose, n=12"}, "[22]": {"details": "metformin vs baseline (no drug)"}},
  "note": "Like-named read-outs stand apart in the source and are kept apart here.",
  "data": [
    {"smiles": "NC(N)=Nc1nc(CSCCC(N)=NS(N)(=O)=O)cs1", "note": "[Famotidine, famotidine]", "values": [
      {"measurement": "Eliminated by metabolic route", "setting": "[1]", "result": "30–35%"},
      {"measurement": "Eliminated by renal route", "setting": "[1]", "result": "65–70%"},
      {"measurement": "Inhibition of metformin transport by PMAT", "setting": "[2]", "result": "potent inhibitor"},
      {"measurement": "IC50", "setting": "MATE1 [3]", "result": 0.25, "unit": "µM"},
      {"measurement": "Selectivity of inhibition of metformin transport for MATE1 over OCT2", "setting": "MATE1 [4]", "result": "over 200 fold"},
      {"measurement": "Creatinine concentrations in plasma", "setting": "[5]", "result": "significantly higher"},
      {"measurement": "IC50", "setting": "OCT1 [6]", "result": 19, "unit": "µM"},
      {"measurement": "CL renal", "setting": "clinical [7]", "result": "290 ± 32", "unit": "mL/min"},
      {"measurement": "Substrate of MATE2", "setting": "MATE2 [8]", "result": "unequivocal substrate"},
      {"measurement": "IC50", "setting": "MATE2 [9]", "result": 2.5, "unit": "µM"},
      {"measurement": "Maximal concentration of unbound famotidine in plasma ([I], Cmax,u)", "setting": "[10]", "result": 1000, "unit": "nM"},
      {"measurement": "Maximal concentration of unbound famotidine in plasma ([I], Cmax,u)", "setting": "[10]; listed as famotidine", "result": "1000 ± 64", "unit": "nM"},
      {"measurement": "BSV-CL (between subject variability)", "setting": "[10]; population PK model, (R.S.E)", "result": "6.4% (25%)"},
      {"measurement": "BSV-F (between subject variability)", "setting": "[10]; population PK model, (R.S.E)", "result": "26% (53%)"},
      {"measurement": "BSV-Lagtime (between subject variability)", "setting": "[10]; population PK model, (R.S.E)", "result": "77% (99%)"},
      {"measurement": "CL/F, population estimate (R.S.E)", "setting": "[10]; [19]", "result": "116 (7.2%) L/h"},
      {"measurement": "Lag time, population estimate (R.S.E)", "setting": "[10]; [19]", "result": "0.27 (32%) h"},
      {"measurement": "V/F, population estimate (R.S.E)", "setting": "[10]; [19]", "result": "715 (6.0%) L"},
      {"measurement": "ka, population estimate (R.S.E)", "setting": "[10]; [19]", "result": "1.14 (11%) h^−1"},
      {"measurement": "Substrate of OCT2", "setting": "OCT2 [11]", "result": "unequivocal substrate"},
      {"measurement": "Tolerability during co-administration with metformin", "setting": "[12]", "result": "well tolerated"},
      {"measurement": "Effect of famotidine alone on glucose AUC", "setting": "plasma glucose; OGTT, data not shown", "result": "no significant effect"},
      {"measurement": "Bound to plasma proteins", "setting": "[13]", "result": "approximately 20%"},
      {"measurement": "IC50", "setting": "OCT2 [14]", "result": 66, "unit": "µM"},
      {"measurement": "Substrate of MATE1", "setting": "MATE1 [15]", "result": "unequivocal substrate"},
      {"measurement": "Substrate of OCT1", "setting": "OCT1 [16]", "result": "unequivocal substrate"},
      {"measurement": "BSV-Baseline, creatinine model (R.S.E.)", "setting": "creatinine plasma levels", "result": "18 (19%)"},
      {"measurement": "BSV-Phase Shift, creatinine model (R.S.E.)", "setting": "creatinine plasma levels", "result": "2.7 (89%)"},
      {"measurement": "Creatinine plasma Amplitude 1, typical value (R.S.E.)", "setting": "creatinine plasma levels; diurnal rhythm model", "result": "1.15 (49%) mg/L"},
      {"measurement": "Creatinine plasma Phase Shift 1, typical value (R.S.E.)", "setting": "creatinine plasma levels; diurnal rhythm model", "result": "2.37 (2.6%) mg/L"},
      {"measurement": "Creatinine plasma Baseline, typical value (R.S.E.)", "setting": "creatinine plasma levels; twelve healthy volunteers", "result": "8.07 (5.5%) mg/L"}
    ]},
    {"smiles": "CN(C)C(=N)N=C(N)N", "note": "[Metformin, metformin]", "values": [
      {"measurement": "CL renal", "setting": "clinical [17]; plasma and urine, oral", "result": "767 ± 70", "unit": "mL/min"},
      {"measurement": "AUC(0-inf)", "setting": "clinical [17]; plasma, oral", "result": 14600, "unit": "ng·h/mL"},
      {"measurement": "Tmax", "setting": "clinical [17]; plasma, po, 1850 mg", "result": "2 ± 0.24", "unit": "h"},
      {"measurement": "AUCglu,0.5, mean ± SEM", "setting": "plasma glucose; [20]", "result": "55 ± 1.5", "unit": "mg·h/dL"},
      {"measurement": "AUCglu,0.5, median", "setting": "plasma glucose; [20]", "result": 55, "unit": "mg·h/dL"},
      {"measurement": "AUCglu,3, mean ± SEM", "setting": "plasma glucose; [21]", "result": "356 ± 14", "unit": "mg·h/dL"},
      {"measurement": "AUCglu,3, median", "setting": "plasma glucose; [21]", "result": 343, "unit": "mg·h/dL"},
      {"measurement": "AUCglu,0.5, GMR (90%CI), metformin vs baseline", "setting": "plasma glucose; [22]", "result": "0.94 (0.90–0.98)"},
      {"measurement": "AUCglu,3, GMR (90%CI), metformin vs baseline", "setting": "plasma glucose; [22]", "result": "0.99 (0.94–1.04)"},
      {"measurement": "AUCglu,0.5, GMR (90%CI), metformin vs baseline", "setting": "plasma glucose; metformin vs baseline (no drug), listed as metformin", "result": "0.94 [0.90–0.98]"},
      {"measurement": "Ionized in blood and in urine at physiologic pH", "setting": "[18]", "result": "> 99", "unit": "%"}
    ]}
  ]
}
